{"source": "patent US7884136B2", "about": "“Modified-release formulations of a bupropion salt” (Biovail Laboratories International S.R.L., priority 2005, dated 2011)", "key": {"[1]": {"assay": "Accelerated stability study of bupropion HBr, closed bottles, 40° C./75% RH, 3 and 6 months, HPLC", "format": "physicochemical", "conditions": "Batch D00896, 40° C., R.H. 75%; for Chromatographic purity B) (HPLC) 4) 2-N-(tert-Butyl)-aminopropiophenone / Chromatographic purity B) (HPLC) 5) single unknown impurity (each): LOQ 0.02%, LOD 0.002%; for Chromatographic purity A) (HPLC) 1) 3′-Chloropropiophenone / Chromatographic purity A) (HPLC) 3) 3′-Chlorobenzoic acid / Chromatographic purity A) (HPLC) 2) 3′-Chloro-2-bromopropiophenone: LOQ 0.05%; for Chromatographic purity A) (HPLC) 1) 3′-Chloropropiophenone / Chromatographic purity A) (HPLC) 3) 3′-Chlorobenzoic acid: LOD 0.01%; for Chromatographic purity A) (HPLC) 2) 3′-Chloro-2-bromopropiophenone: LOD 0.04%"}, "[2]": {"assay": "Shelf life stability program of bupropion HBr, 25° C./60% RH, 3 and 6 months, HPLC", "format": "physicochemical", "conditions": "Batch D00894, 25° C., R.H. 60%; for Chromatographic purity B) (HPLC) 4) 2-N-(tert-Butyl)-aminopropiophenone / Chromatographic purity B) (HPLC) 5) single unknown impurity (each): LOQ 0.02%, LOD 0.002%; for Chromatographic purity A) (HPLC) 1) 3′-Chloropropiophenone / Chromatographic purity A) (HPLC) 3) 3′-Chlorobenzoic acid / Chromatographic purity A) (HPLC) 2) 3′-Chloro-2-bromopropiophenone: LOQ 0.05%; for Chromatographic purity A) (HPLC) 1) 3′-Chloropropiophenone / Chromatographic purity A) (HPLC) 3) 3′-Chlorobenzoic acid: LOD 0.01%; for Chromatographic purity A) (HPLC) 2) 3′-Chloro-2-bromopropiophenone: LOD 0.04%", "method_in_brief": "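Three batches of bupropion HBr stored in closed containers at 25° C.+2° C./60%+5% RH. Sampled at time 0, 3 and 6 months, each analysed under two HPLC conditions for 6 impurities or impurity groups; degradation product amounts compared to time 0.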"}}}
{"molecule": "Br.CC(NC(C)(C)C)C(=O)c1cccc(Cl)c1", "note": "(stereo not drawn) [Bupropion•HBr]", "values": [{"measurement": "Assay (HPLC)", "setting": "[1]; 3 month", "result": 100.0, "unit": "% on d.b."}, {"measurement": "Chromatographic purity (HPLC: A + B) Total impurities", "setting": "[1]; 3 month", "result": 0.1, "unit": "%"}, {"measurement": "Chromatographic purity B) (HPLC) 6) total unknown impurities", "setting": "[1]; 3 month", "result": "6) 0.05%"}, {"measurement": "Description (white or almost white crystalline powder)", "setting": "[1]; 3 month", "result": "conform"}, {"measurement": "Identification IR, HPLC", "setting": "[1]; 3 month", "result": "positive"}, {"measurement": "Water content (K.F.)", "setting": "[1]; 3 month", "result": 0.11, "unit": "%"}, {"measurement": "Chromatographic purity B) (HPLC) 4) 2-N-(tert-Butyl)-aminopropiophenone", "setting": "[1]; 3 month", "result": "4) 0.03%"}, {"measurement": "Chromatographic purity B) (HPLC) 5) single unknown impurity (each)", "setting": "[1]; 3 month", "result": "5) 0.04%"}, {"measurement": "Chromatographic purity A) (HPLC) 1) 3′-Chloropropiophenone", "setting": "[1]; 3 month", "result": "1) n.q."}, {"measurement": "Chromatographic purity A) (HPLC) 3) 3′-Chlorobenzoic acid", "setting": "[1]; 3 month", "result": "3) n.q."}, {"measurement": "Chromatographic purity A) (HPLC) 2) 3′-Chloro-2-bromopropiophenone", "setting": "[1]; 3 month", "result": "2) n.d."}, {"measurement": "Assay (HPLC)", "setting": "[1]; 6 months", "result": 100.4, "unit": "% on d.b."}, {"measurement": "Chromatographic purity (HPLC: A + B) Total impurities", "setting": "[1]; 6 months", "result": 0.1, "unit": "%"}, {"measurement": "Chromatographic purity B) (HPLC) 6) total unknown impurities", "setting": "[1]; 6 months", "result": "6) n.q."}, {"measurement": "Description (white or almost white crystalline powder)", "setting": "[1]; 6 months", "result": "conform"}, {"measurement": "Identification IR, HPLC", "setting": "[1]; 6 months", "result": "positive"}, {"measurement": "Water content (K.F.)", "setting": "[1]; 6 months", "result": 0.04, "unit": "%"}, {"measurement": "Chromatographic purity B) (HPLC) 4) 2-N-(tert-Butyl)-aminopropiophenone", "setting": "[1]; 6 months", "result": "4) 0.04%"}, {"measurement": "Chromatographic purity B) (HPLC) 5) single unknown impurity (each)", "setting": "[1]; 6 months", "result": "5) n.q."}, {"measurement": "Chromatographic purity A) (HPLC) 1) 3′-Chloropropiophenone", "setting": "[1]; 6 months", "result": "1) 0.05%"}, {"measurement": "Chromatographic purity A) (HPLC) 3) 3′-Chlorobenzoic acid", "setting": "[1]; 6 months", "result": "3) n.q."}, {"measurement": "Chromatographic purity A) (HPLC) 2) 3′-Chloro-2-bromopropiophenone", "setting": "[1]; 6 months", "result": "2) n.d."}, {"measurement": "Assay (HPLC)", "setting": "[1]; Time 0", "result": 99.3, "unit": "% on d.b."}, {"measurement": "Chromatographic purity (HPLC: A + B) Total impurities", "setting": "[1]; Time 0", "result": 0.1, "unit": "%"}, {"measurement": "Chromatographic purity B) (HPLC) 6) total unknown impurities", "setting": "[1]; Time 0", "result": "6) 0.05%"}, {"measurement": "Description (white or almost white crystalline powder)", "setting": "[1]; Time 0", "result": "conform"}, {"measurement": "Identification IR, HPLC", "setting": "[1]; Time 0", "result": "positive"}, {"measurement": "Water content (K.F.)", "setting": "[1]; Time 0", "result": 0.06, "unit": "%"}, {"measurement": "Chromatographic purity B) (HPLC) 4) 2-N-(tert-Butyl)-aminopropiophenone", "setting": "[1]; Time 0", "result": "4) 0.04%"}, {"measurement": "Chromatographic purity B) (HPLC) 5) single unknown impurity (each)", "setting": "[1]; Time 0", "result": "5) 0.05%"}, {"measurement": "Chromatographic purity A) (HPLC) 1) 3′-Chloropropiophenone", "setting": "[1]; Time 0", "result": "1) n.d."}, {"measurement": "Chromatographic purity A) (HPLC) 3) 3′-Chlorobenzoic acid", "setting": "[1]; Time 0", "result": "3) n.q."}, {"measurement": "Chromatographic purity A) (HPLC) 2) 3′-Chloro-2-bromopropiophenone", "setting": "[1]; Time 0", "result": "2) n.d."}, {"measurement": "Assay (HPLC)", "setting": "[2]; 3 months", "result": 99.4, "unit": "% on d.b."}, {"measurement": "Chromatographic purity (HPLC: A + B) Total impurities", "setting": "[2]; 3 months", "result": 0.1, "unit": "%"}, {"measurement": "Chromatographic purity B) (HPLC) 6) total unknown impurities", "setting": "[2]; 3 months", "result": "6) 0.05%"}, {"measurement": "Description (white or almost white crystalline powder)", "setting": "[2]; 3 months", "result": "conform"}, {"measurement": "Identification IR, HPLC", "setting": "[2]; 3 months", "result": "positive"}, {"measurement": "Water content (K.F.)", "setting": "[2]; 3 months", "result": 0.05, "unit": "%"}, {"measurement": "Chromatographic purity B) (HPLC) 4) 2-N-(tert-Butyl)-aminopropiophenone", "setting": "[2]; 3 months", "result": "4) 0.03%"}, {"measurement": "Chromatographic purity B) (HPLC) 5) single unknown impurity (each)", "setting": "[2]; 3 months", "result": "5) 0.04%"}, {"measurement": "Chromatographic purity A) (HPLC) 1) 3′-Chloropropiophenone", "setting": "[2]; 3 months", "result": "1) n.q."}, {"measurement": "Chromatographic purity A) (HPLC) 3) 3′-Chlorobenzoic acid", "setting": "[2]; 3 months", "result": "3) n.q."}, {"measurement": "Chromatographic purity A) (HPLC) 2) 3′-Chloro-2-bromopropiophenone", "setting": "[2]; 3 months", "result": "2) n.d."}, {"measurement": "Assay (HPLC)", "setting": "[2]; 6 months", "result": 100.2, "unit": "% on d.b."}, {"measurement": "Chromatographic purity (HPLC: A + B) Total impurities", "setting": "[2]; 6 months", "result": 0.1, "unit": "%"}, {"measurement": "Chromatographic purity B) (HPLC) 6) total unknown impurities", "setting": "[2]; 6 months", "result": "6) 0.02%"}, {"measurement": "Description (white or almost white crystalline powder)", "setting": "[2]; 6 months", "result": "conform"}, {"measurement": "Identification IR, HPLC", "setting": "[2]; 6 months", "result": "positive"}, {"measurement": "Water content (K.F.)", "setting": "[2]; 6 months", "result": 0.06, "unit": "%"}, {"measurement": "Chromatographic purity B) (HPLC) 4) 2-N-(tert-Butyl)-aminopropiophenone", "setting": "[2]; 6 months", "result": "4) 0.05%"}, {"measurement": "Chromatographic purity B) (HPLC) 5) single unknown impurity (each)", "setting": "[2]; 6 months", "result": "5) n.q."}, {"measurement": "Chromatographic purity A) (HPLC) 1) 3′-Chloropropiophenone", "setting": "[2]; 6 months", "result": "1) 0.05%"}, {"measurement": "Chromatographic purity A) (HPLC) 3) 3′-Chlorobenzoic acid", "setting": "[2]; 6 months", "result": "3) n.q."}, {"measurement": "Chromatographic purity A) (HPLC) 2) 3′-Chloro-2-bromopropiophenone", "setting": "[2]; 6 months", "result": "2) n.d."}, {"measurement": "Assay (HPLC)", "setting": "[2]; 9 months", "result": 99.5, "unit": "% on d.b."}, {"measurement": "Chromatographic purity (HPLC: A + B) Total impurities", "setting": "[2]; 9 months", "result": "n.q."}, {"measurement": "Chromatographic purity B) (HPLC) 6) total unknown impurities", "setting": "[2]; 9 months", "result": "6) n.q."}, {"measurement": "Description (white or almost white crystalline powder)", "setting": "[2]; 9 months", "result": "conform"}, {"measurement": "Identification IR, HPLC", "setting": "[2]; 9 months", "result": "positive"}, {"measurement": "Water content (K.F.)", "setting": "[2]; 9 months", "result": 0.05, "unit": "%"}, {"measurement": "Chromatographic purity B) (HPLC) 4) 2-N-(tert-Butyl)-aminopropiophenone", "setting": "[2]; 9 months", "result": "4) n.d."}, {"measurement": "Chromatographic purity B) (HPLC) 5) single unknown impurity (each)", "setting": "[2]; 9 months", "result": "5) n.q."}, {"measurement": "Chromatographic purity A) (HPLC) 1) 3′-Chloropropiophenone", "setting": "[2]; 9 months", "result": "1) n.q."}, {"measurement": "Chromatographic purity A) (HPLC) 3) 3′-Chlorobenzoic acid", "setting": "[2]; 9 months", "result": "3) n.q."}, {"measurement": "Chromatographic purity A) (HPLC) 2) 3′-Chloro-2-bromopropiophenone", "setting": "[2]; 9 months", "result": "2) n.d."}]}
